Source: patent publication US20050186290A1, “Use of aquaglyceroporin modulators as slimming agent” (L'OREAL, priority 2003, published 2005)

What was measured:
Assay type in all cases: cell-based, mice
[1] = test system: Aquaporin adipose (AQPap) messenger; assay: Relative expression of AQPap messenger by RT-Q-PCR in differentiated 3T3-L1 cells; settings: for RE*AQP7 / AQP7/Actin % Control: 6 h; for RE*AQP7: n=2; for AQP7/Actin % Control: differentiated control = 100; for mRNA stimulation: summary
Procedure: The test was carried out on differentiated 3T3-L1 cells obtained as described in Example 1.
The differentiated cells were placed beforehand in test medium for 24 hours and were then treated with the test products or the references. After incubating for 6 h at 37° C. and 5% CO2, the culture supernatants were removed, the cells were rinsed with a PBS solution and the cell layers were placed in Tri-Reagent (Sigma T9424) and then immediately frozen at −80° C.
The expression of the markers selected was evaluated by RT-Q-PCR with regard to the messenger RNAs extracted from the cells corresponding to each treatment.
The marker β-actin (M12481) was used as reference marker.
The operational stages are as follows: • Extraction of the total RNAs using Tri-Reagent according to the protocol recommended by the supplier. Then further extraction with chloroform and precipitation with isopropanol. • Removal of the traces of potentially contaminating DNA by treatment with the DNA-free system (Ambion). After monitoring the quality of the RNAs obtained, the three samples corresponding to each treatment were pooled. • Carrying out the reverse transcription reaction on the mRNA in the presence of the oligo(dT) primer and of the Superscript II (Gibco) enzyme. • Quantification by fluorescence of the synthesized cDNA and adjustment of the concentrations to 50 ng/μl. Further quantification of each cDNA, after final dilution, is carried out before the PCR reaction.
The PCR (polymerase chain reactions) reactions were carried out by quantitative PCR with the “Light Cycler” system (Roche Molecular Systems Inc.) and according to the procedures recommended by the supplier.
The incorporation of fluorescence into the amplified DNA is carried out continuously during the PCR cycles. This system makes it possible to obtain curves of measurement of the fluorescence as a function of the PCR cycles and to thus evaluate a value of relative expression for each marker.
The number of cycles is determined from the “exit” points of the fluorescence curves. For the same marker analysed, the later the sample exits (high cycle number), the lower the initial number of mRNA copies.
The RE (relative expression) value is expressed in arbitrary units according to the following formula: (1/2^number of cycles)×10^6
Results: Effects of the various treatments on the relative expression of the Aquaporin adipose (AQPap) messenger. Results with respect to the amount of actin messenger (reference gene).
RE=Relative Expression, expressed in arbitrary units (AU), n=2.

[2] = test system: differentiated 3T3-L1 cells; assay: Fluorescence assay of glycerol released, Protocol 1 (without epinephrine); settings: for Release of glycerol: summary
Procedure: (§1) The effects on the release of glycerol were tested in the presence of all the test products and using a fluorescence assay method. Glycerol was then assayed with regard to certain selected products using a calorimetric method and in the presence or the absence of HgCl2.
(§2) The cells used were mice preadipocytes of the 3T3-L1 line (40 000 cells/well).
(§3) The cells were cultured until confluency in a growth medium, with a change in medium every 2-3 days (24-well plates). • Growth medium: • DMEM (Life Technologies 21969035) L-glutamine, 2 mM (Life Technologies 25030024) • Penicillin 50 IU/ml streptomycin 50 μg/ml (Life Technologies 15070063) • Amphotericin B, 0.25 μg/ml (Sigma A2942) • Foetal calf serum, 10% v/v (Life Technologies 10106151).
(§4) At high confluency, the cells were transferred into a differentiation medium for 2×48 hours. • Differentiation medium: • DMEM (Life Technologies 21969035) • L-glutamine, 2 mM (Life Technologies 25030024) • Penicillin 50 IU/ml streptomycin 50 μg/ml (Life Technologies 15070063) • Foetal calf serum, 10% v/v (Life Technologies 10106151), • Isobutylmethylxanthine, 0.5 mM (IBMX, Sigma 17018) • Insulin, 5 μg/ml (Sigma 11882) • Dexamethasone, 1 μM (Sigma D1756)
After differentiation, the cells were transferred into DMEM medium+insulin (5 μg/ml final) for 72 hours and then into growth medium (DMEM/10% serum).
The differentiated cells were placed in test medium (MEM 100% (v/v), bicarbonate 1.87 mg/ml, glutamine 2 mM, delipidated bovine serum albumin 0.5% (w/v), penicillin/streptomycin 25 IU/ml/25 μg/ml) and were then treated with the test products or the references. After incubating at 37° C. for 1 h and 5% CO2, the culture supernatants were removed in order to assay the glycerol released.
The glycerol released into the culture medium was with a determined content of directly by measuring the fluorescence of the NADH produced in the following reaction sequence (according to Wieland). [drawing 1] Autofluorescence and quenching (absorption of the fluorescence) controls were carried out in order to determine possible interference of the products in this assay.

[3] = test system: differentiated 3T3-L1 cells; assay: Colorimetric assay of glycerol released, Protocol 1; settings: Protocol 1, 40 μM
Procedure: as §1, §2, §3, §4
After differentiation, the cells were transferred into DMEM medium+insulin (5 μg/ml final) for 72 hours and then into growth medium (DMEM/10% serum). […]

[4] = test system: differentiated 3T3-L1 cells; assay: Fluorescence assay of glycerol released, HgCl2 protocol (Protocol 3); settings: 10 mM
Procedure: The majority of mammalian aquaporins are inhibited by mercury and its salts, whereas chemical inhibitors of diffusion are unknown (P. Agre et al., J. of Physiology, 2002, 542.1). The cells used were mice preadipocytes of the 3T3-L1 line (40 000 cells/well). The cells were cultured until confluency in a growth medium, with a change in medium every 2-3 days (24-well plates). • Growth medium: • DMEM (Life Technologies 21969035) L-glutamine, 2 mM (Life Technologies 25030024) • Penicillin 50 IU/ml streptomycin 50 μg/ml (Life Technologies 15070063) • Amphotericin B, 0.25 μg/ml (Sigma A2942) • Foetal calf serum, 10% v/v (Life Technologies 10106151). […] After differentiation, the cells were transferred into DMEM medium+insulin (5 μg/ml final) for 72 hours and then into growth medium (DMEM/10% serum). […] The differentiated cells were placed in test medium for 24 h. The cells were subsequently placed in PBS buffer comprising or not comprising HgCl2 (30 μM final) for 5 minutes at 37° C. After treatment with HgCl2, the cells were washed twice in PBS and then placed in test medium comprising or not comprising the test products. The culture supernatants were subsequently removed in order to assay the glycerol released.

[5] = Protocol 1 (Caophenol table), 40 μM

## CCCCCCCCCCC#CCSCC(=O)O [(Tridec-2-ynylthio)acetic acid]
[1]; 0.00032 mg/ml
  RE*AQP7: 0.912 AU
  AQP7/Actin % Control: 130%
[1]; 0.0016 mg/ml
  RE*AQP7: 0.872 AU
  AQP7/Actin % Control: 105%
[1]; 0.008 mg/ml
  RE*AQP7: 0.032 AU
  AQP7/Actin % Control: 174%
[1]; 0.16-4.0 μg/ml
  mRNA stimulation: Yes
[2]; 0.16-4.0 μg/ml
  Release of glycerol: No

## CNC[C@H](O)c1ccc(O)c(O)c1 [Epinephrine]
[3]
  % Control: 795%
  Glycerol: 449.74 µM
[2]; [5]
  % Control: 327%
  % theory, taking into account the quenching control: 327%
  Glycerol: 101.85 µM
[2]; Protocol 1, 40 μM, 1 h
  % Control: 352%
  Glycerol: 117.57 µM
[2]; differentiated preadipocytes, epinephrine 40 μM
  Glycerol: 149.5 µM
[2]; differentiated preadipocytes, epinephrine 40 μM, unstimulated differentiated = 100
  Δ%: 383%

## CCCCCCCCSCC#CCSCC(=O)O [{[4-(Octylthio)but-2-ynyl]thio}acetic acid]
[1]; 0.00016 mg/ml
  RE*AQP7: 0.023 AU
  AQP7/Actin % Control: 128%
[1]; 0.0008 mg/ml
  RE*AQP7: 0.022 AU
  AQP7/Actin % Control: 153%
[1]; 0.004 mg/ml
  RE*AQP7: 0.020 AU
  AQP7/Actin % Control: 167%
[1]; 0.32-8.0 μg/ml
  mRNA stimulation: Yes
[2]; 0.32-8.0 μg/ml
  Release of glycerol: No

## OCCS [β-Mercaptol]
[4]
  % theory, taking into account the quenching control: 155%
  Glycerol: 135.74 µM
[4]; HgCl2 control = 100
  % Control: 155%

## Aescin
[1]; 0.000128 mg/ml
  RE*AQP7: 0.034 AU
  AQP7/Actin % Control: 134%
[1]; 0.00064 mg/ml
  RE*AQP7: 0.039 AU
  AQP7/Actin % Control: 168%
[1]; 0.0032 mg/ml
  RE*AQP7: 0.043 AU
  AQP7/Actin % Control: 164%
[1]; 0.128-3.2 μg/ml
  mRNA stimulation: Yes
